The record followed here is the METLIN SMRT retention time set (Domingo-Almenara et al. 2019).

The series is described as follows: gradient 5% acetonitrile 3 min, to 50% in 2 min, to 85% in 15 min, held 3 min, 100 µL/min. The following applies: column: Zorbax Extend-C18 2.1 x 50 mm; eluents: water / acetonitrile, 0.1% formic acid. Put shortly:
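Pure standards were analyzed in mixtures of ~100 molecules using HPLC coupled to a quadrupole time-of-flight mass spectrometer, in both positive and negative ionization mode. Separation used a Zorbax Extend-C18 column (2.1 × 50 mm, 1.8 μm) at 100 μL/min, with water and acetonitrile each containing 0.1% formic acid. Dead and dwell volumes were 40 μL and 900 μL, and data were collected over 3 months. Retention time was read from computationally picked adduct peaks, each inspected manually.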
On to `CC(NC(=O)C1=C2CCCN2c2ccc(F)cc2S1(=O)=O)c1ccc(F)cc1` (configuration not stated), for which the RP-LC retention time came out at 935 s. For `CCN1CCCn2cc(S(=O)(=O)NCCCc3ccccc3)cc2C1=O` the value was 785 s. In the case of `CCn1c(C(=O)NCCc2c[nH]c3ccccc23)cc2c(-c3cccs3)nn(-c3ccccc3)c21`, the RP-LC retention time is 1150 s.

The molecule `Cc1noc(C)c1-c1ccc(S(=O)(=O)NCC2CCCO2)cc1` (configuration not stated) had an RP-LC retention time of 767 s.

In turn, `CCCC(=O)Nc1ccc(-c2nc(Cn3cccn3)c(C)o2)cc1` came in with an RP-LC retention time of 759 s. For `COc1ccc(OCc2nnc3sc(-c4ccc(OC)cc4OC)nn23)cc1` the value was 989 s; for `O=C(CN(CC1CCCO1)C(=O)c1cccc(Br)c1)N1CCNCC1` (configuration not stated), 602 s; for `CCCc1cc(N2CCN(C(=O)c3cccc(C#N)c3)CC2)nc2nncn12`, 604 s. For `Cc1cc(C)c(NC(=O)C2CCCN(S(=O)(=O)c3cc(-c4noc(C)n4)cs3)C2)c(C)c1` (configuration not stated) the value was 1110 s. As to `COC1CCC12CCN(C(=O)c1c(C)noc1C)CC2` (configuration not stated), the RP-LC retention time worked out at 716 s. Regarding `Cc1cc(NC(=O)C2Oc3ccccc3NC2=O)ccc1Br` (configuration not stated), the RP-LC retention time is 865 s. The same measure for `COc1ccccc1Nc1c(-c2ccc(OC)c(OC)c2)nc2cnccn12`: 806 s; for `CCc1noc(NC(C)=O)c1-c1ccc(OC)c(S(=O)(=O)Nc2ccc(C)c(F)c2)c1`: 836 s; for `Cc1cnc(C(=O)N2CCC3(CCC3O)CC2)cn1` (configuration not stated): 605 s. For `CCOC(=O)c1sc(NC(=O)c2ccc(Br)cc2F)nc1C` the value was 986 s. As for `Cc1nc(-c2noc(-c3cccnc3)n2)cn1CC(=O)NC(C)c1ccccc1` (configuration not stated), the RP-LC retention time was 684 s. As to `O=C(Nc1ncnc2sccc12)C1COc2ccccc2O1` (configuration not stated), the RP-LC retention time amounted to 718 s.

`COC(=O)c1c(NCCO)c2cc(F)ccc2[nH]c1=O` gave an RP-LC retention time of 590 s. For `COc1ccc(NC(=O)c2cn(C)nc2S(=O)(=O)N2CCC(C)CC2)c(F)c1` the value was 997 s. The same measure for `CCOc1ccc(Cl)cc1S(=O)(=O)N1CCC(C(=O)Nc2ccc3c(c2)OCCO3)CC1`: 1150 s; for `COc1ccc(-c2nc3cc(C)ccn3c2NC(=O)c2ccc(F)cc2)cc1OC`: 597 s. In turn, `CCN(Cc1ccccc1)C(=O)Cn1c(N)nc(C)cc1=O` registered an RP-LC retention time of 596 s. `CCCNC(=O)N(C1CCOCC1)C1CCN(C(=O)c2cnccn2)CC1` registered an RP-LC retention time of 611 s. As to `Cc1ccc(CN2CC(n3cc(COc4ccc(F)cc4)nn3)C2)s1`, the RP-LC retention time was determined as 684 s. The same measure for `O=C(Nc1ccc(OCc2nnc(-c3ccccc3)o2)cc1)c1ccsc1`: 864 s. The same measure for `CCN(CC)c1ncc2c(n1)CCC(C(=O)Nc1ccc(OC)c(F)c1)C2` (configuration not stated): 726 s. The same measure for `CCc1nc(-c2cccc(-c3noc(CNS(=O)(=O)c4ccccc4)n3)c2)cs1`: 1070 s. Turning to `COC(=O)C1=CN(c2ccc(OC)cc2)c2ccc(F)cc2S1(=O)=O`, the RP-LC retention time worked out at 804 s. In the case of `CC1=NC(C)(C)CC2CCC(O)C12` (configuration not stated), the RP-LC retention time amounted to 683 s.

With `COc1ccc(N2CC(C(=O)N3CCN(c4ccccn4)CC3)CC2=O)cc1` (configuration not stated), the RP-LC retention time came to 582 s. The molecule `CCCS(=O)(=O)N1CCOc2ccc(NC(=O)C3CC3)cc2C1` had an RP-LC retention time of 754 s.

The molecule `O=S(=O)(CCOc1ccc(F)cc1)Nc1ncccn1` displayed an RP-LC retention time of 670 s. The same measure for `CN1CCN(S(=O)(=O)c2ccc(Cl)c3ccccc23)CC1`: 580 s. `COc1ccc(NC(=O)CN2CCc3[nH]c4ccc(OC)cc4c(=O)c3C2)c(OC)c1` gave an RP-LC retention time of 609 s. For `Cc1cc(SCC(=O)N2CCCc3ccccc32)nc(=O)[nH]1` the value was 677 s; for `Cc1ccc(CN2C(=O)COc3ccc(C(=O)NCc4ccc5c(c4)OCO5)cc32)cc1`, 921 s. `CNC(=O)C1CCCN(c2nc3ncn(CC(=O)Nc4cc(Cl)ccc4C)c(=O)c3s2)C1` (configuration not stated) yielded an RP-LC retention time of 669 s.

`COc1ccc(N2CCN(c3cc(SCC(=O)Nc4ccccc4F)ncn3)CC2)cc1` had an RP-LC retention time of 1030 s. In turn, `Cc1cnc(C2CN(C(=O)C(C)C)C2)n1CC1CC1` displayed an RP-LC retention time of 562 s. On to `Cc1ccc(NC(=O)N2CCCC2c2nc(-c3cccc(F)c3)no2)cc1` (configuration not stated), for which the RP-LC retention time worked out at 1010 s. `Cc1ccccc1NC(=O)Nc1cccnc1N(C)C` returned an RP-LC retention time of 590 s. `CC(C)NC(=O)N1CCC(c2noc(-c3cnccn3)n2)C1` (configuration not stated): the RP-LC retention time amounted to 624 s. The same measure for `Cc1nn(C(C)C(=O)NC2CCC(C)CC2)c(=O)c2nn(-c3ccccc3)c(C)c12` (configuration not stated): 962 s; for `O=C(CC1=NS(=O)(=O)c2ccccc2N1)Nc1ccc(F)cc1F`: 679 s; for `COC(=O)c1ncn2c1C(=O)N(c1ccc(C)cc1)C(C)(C(=O)NCc1ccccc1)C2` (configuration not stated): 692 s. The same measure for `O=C(Nc1nc2ccccc2s1)C1CCCN(c2ncnc3c2nc2n3CCCCC2)C1` (configuration not stated): 909 s; for `C=CCN1C(=O)COc2ccc(-c3nc(NC(=O)CC)sc3C)cc21`: 846 s; for `O=C(CSc1nc2ccccc2[nH]1)Nc1nc2ccccc2s1`: 577 s. For `COc1ccc2nc(C(=O)NCc3ccc(C)cc3)cn2n1` the value was 843 s. `Cc1nn(C(C)C(=O)NCCN(C)C)c(=O)c2nn(-c3ccccc3)c(C)c12` (configuration not stated) gave an RP-LC retention time of 601 s. For `COc1ncccc1CNC(=O)c1cc(Cl)ccc1F` the value was 1180 s. On to `CN1C(=O)C2CCCCN2c2ccc(C(=O)NCCCN3CCOCC3)cc21` (configuration not stated), for which the RP-LC retention time stood at 579 s. Turning to `Cc1cc2c(c(=O)n(-c3ccccc3)c(=O)n2CC(=O)Nc2ccc(Br)cc2F)n1C`, the RP-LC retention time amounted to 894 s.

For the molecule `Cc1c(C(=O)NCc2cccnc2)oc2c1C(=O)CC(C)(C)C2`, the RP-LC retention time was determined as 560 s.

In turn, `CC(NC(=O)CCc1c(-c2ccc(Br)cc2)nc2ccccn12)c1ccccc1` (configuration not stated) displayed an RP-LC retention time of 770 s. For `COc1cccc(NC(=O)CN2C(=O)NC3(CCCCC3)C2=O)c1` the value was 724 s. The same measure for `O=C(CCc1ccccc1)Nc1cnc(N2CCOCC2)nc1`: 744 s; for `Cc1ccc(S(=O)(=O)NC2CCS(=O)(=O)C2)cc1[N+](=O)[O-]` (configuration not stated): 678 s.

In the case of `COc1ccc(S(=O)(=O)N2CCCC(C(=O)N3CCc4ccccc4C3)C2)cc1Cl` (configuration not stated), the RP-LC retention time is 1020 s. Turning to `O=c1[nH]cc(S(=O)(=O)N2CCCC2)c(=O)[nH]1`, the RP-LC retention time worked out at 568 s. Regarding `O=C(Nc1ccc(-c2nc(-c3ccc(F)cc3)no2)cc1)c1ccc(Br)o1`, the RP-LC retention time is 1200 s. The same measure for `CC1(C(=O)NCc2ccc(F)cc2)CCCN(C(=O)NCc2ccccc2)C1` (configuration not stated): 829 s; for `COc1ccc(Cl)c2c(=O)c3c([nH]c12)CCN(CC(=O)Nc1cccc(C#N)c1)C3`: 801 s; for `COc1ccc(C2Cn3nnc(-c4nc(-c5ccc(Cl)cc5)no4)c3CO2)cc1` (configuration not stated): 1240 s.

As for `Cc1nc(N2CCN(C(=O)COc3ccc(Cl)cc3Cl)CC2)cc(-n2cccn2)n1`, the RP-LC retention time was 894 s.

`O=C(NCc1ccco1)N1CCCn2nc(-c3cccs3)cc2C1`: the RP-LC retention time was 752 s.

`CCC(C)NC(=O)CCn1c(=O)c2ccccc2n2c(=O)n(Cc3ccccc3F)nc12` (configuration not stated) had an RP-LC retention time of 884 s. The same measure for `O=C(NCC1CCOCC1)c1cccc(Br)c1`: 733 s; for `O=C(c1ccccc1OCC1CCCN(C2CCCCC2)C1)N1CCCCC1` (configuration not stated): 594 s; for `O=C(Cc1cccs1)NCC(c1ccsc1)N1CCCC1` (configuration not stated): 558 s. `CC(=O)Nc1c(C)nn(-c2ccccc2)c1N1CCC(C(=O)NCCCN2CCCC2=O)CC1` displayed an RP-LC retention time of 605 s. Consider `Cc1ccc(CNC(=O)Cn2c(=O)cc(-c3nc(C(C)C)no3)c3ccccc32)cc1`, for which the RP-LC retention time worked out at 1010 s.

As for `Cc1ccc(-c2noc(C3CC(=O)N(c4ccccc4Cl)C3)n2)cc1` (configuration not stated), the RP-LC retention time was 1010 s. For `CCCn1ccc2sc(C)c(C(=O)NC3CCCCCC3)c2c1=O` the value was 897 s; for `CC(C)(Oc1ccc(Cl)cc1)C(=O)N1CCN(C(=O)C2CC2c2cccs2)CC1` (configuration not stated), 1020 s; for `CN(C)c1ccc(O)c2c1C[C@H]1C[C@H]3[C@H](N(C)C)C(=O)C(C(N)=O)=C(O)[C@@]3(O)C(=O)C1=C2O`, 596 s. The same measure for `CN1C(=O)C2(CCN(C(=O)c3cccc(Cl)c3)C2)c2ccccc21` (configuration not stated): 811 s; for `CCOC(=O)/C=C/c1ccc(O)c(OC)c1`: 749 s.

In the case of `CCOC(=O)N1CCN(c2cc(C(=O)O)c3cc(NC(=O)c4ccc(OC)cc4)ccc3n2)CC1`, the RP-LC retention time was 630 s. `CC(C)N1CCC(CCNC(=O)C2CN(C(=O)c3ccncc3)CC23CCCCC3)CC1` (configuration not stated) came in with an RP-LC retention time of 567 s. `CCOC(=O)c1c(C)oc2nc(C)nc(NCc3ccc(OC)cc3OC)c12` had an RP-LC retention time of 1140 s. Regarding `CC(C)CN1CCCCc2cc(C(=O)NC(C)(C)C)sc21`, the RP-LC retention time is 1270 s.
